This is an account of results in patent US6410752B1, “Tocopherol derivatives and method for preparation thereof” (Pacific Corporation, priority 2000, dated 2002).

Read-outs that look alike come from different tables or passages of the source.

Data set [1] can be described thus: Measurement of antioxidant activity using linoleic acid. The settings on record: 60° C. dark room, when weight no longer changed, NMR spectroscopy. The procedure:
2.0 g of pure linoleic acid was poured on a petri-dish, and here 40 mmol of each of tocopherol, preparation example 1 or tocopherol acetate was added. Then, the mixture solution was maintained in a dark room of 60° C. The oxidation ratio of linoleic oil was measured by daily measurement of the change in weight. The less is the changeability in weight of linoleic acid, the stronger is the antioxidant ability, because the increase in weight of linoleic acid is related to the oxidation of linoleic oil.
In the meantime, when the change in weight of linoleic acid was not observed any longer, the oxidation ratio was determined by using NMR spectroscopy.

Data set [2] can be described thus: Measurement of antioxidant activity using Lard oil. The settings on record: 60° C. dark room, when weight no longer changed, NMR spectroscopy. How it is done: 2.0 g of Lard oil was poured on petri-dish, and here 40 mmol of each of tocopherol, preparation example 1 or tocopherol acetate was added. Then, the mixture solution was maintained in a dark room of 60° C. The oxidation ratio of Lard oil was determined by daily measurement of the change in weight. The less is the changeability in weight of Lard oil, the stronger is the antioxidant ability, because the increase in weight of Lard oil is related to the oxidation of Lard oil.
In the meantime, when the change in weight of Lard oil was not observed any longer, the oxidation ratio was determined by using NMR spectroscopy.

The test system of the next data set is Guinea pigs. The settings on record: 10% solution in squalene. How it is done:
(§1) If the tocopherol derivatives should be used as cosmetic ingredient, their safety in the living body is very important. […] The product of Preparation Example 1 was dissolved in squalene to produce 10% of solution sample, and the sample was employed in safety experiments.
1-5. Skin sensitization test: Test was carried out for six (6) (three males and three females) Guinea pigs according to Maggnusson and Kligman's procedure.

A further data set deals with subjects. The note with it: repeat insult human patch test. The procedure:
as §1
1-7. Repeat Insult Human Patch Test: Human patch test was carried out for subjects according to CTFA Guideline.

In data set [3] the test system is mice. The note with it: oral, 1 ml/kg of 10% solution in squalene. The procedure:
as §1
Acute oral toxicity test in mice: 1 ml/kg of the sample was administrated to total ten (10) mice (male and female were separately five (5) mice).

For data set [4], the system named is rabbits. The settings on record: 0.1 ml of 10% solution in squalene on depilated back site. The procedure: as §1
1-3. Primary skin irritation test: 0.1 ml of test sample was applied to back site (2.5 cm×2.5 cm) of each of 12 rabbits depilated 24 hours before.

The conditions of data set [5]: 60° C., in cetylethyl-hexanoate; for Residual ration(%): HPLC.
Experimental: Each 3 g of preparation example 1 product and tocopherol was dissolved with 100 ml of cetylethyl-hexanoate. […] Then, residual ratio of each compound was analyzed by using HPLC. Here, phenyl column, eluate solution of 70% aqueous THF solution including 10 mM SDS and 50 mM H3PO4, flow rate of 1 ml/min and detection of 286 nm was used as HPLC analysis condition of preparation example 1. And ODS column, MeOH as eluate solution, flow rate of 1 ml/min and detection of 290 nm was used as HPLC analysis condition of tocopherol for control.
For the next data set, the system named is healthy women. The settings on record: human patch test, healthy women aged 20~28. How it is done: as §1
1-6. Human patch test: Human patch test was carried out for thirty (30) healthy women aged 20˜28 according to CTFA Guideline(The Cosmetic Toiletry and Fragrance Association, INC., Washington, D.C. 20036, 1991).

In data set [6] the test system is Fibroblast cells of infant. The settings on record: 24 hours, none-treated sample = 100. The procedure:
The effect on promoting biosynthesis of collagen was examined in vitro for assaying the effect of the present invention on skin, comparing to 3-amino propane phosphate.
Fibroblast cells of infant were inoculated on 24-wells(10^5 cells/well). They were washed with PBS once. And then, preparation example 1 and 3-aminopropane phosphate as a control were treated by the concentration shown Table 3, and were incubated at CO2 incubator for 24 hours. Each supernatant was collected, and the variation of procollagen was measured by using procollangen type (I) ELISA kit. The value of biosynthesis activity was calculated by comparing to 100, the value of none-treated sample.

For another data set, the system named is phosphodiesterase. The note with it: 37° C., 24 hours, 1% aqueous solution of 1:9 mixture with Tween 20, HPLC.
Data set [7] has as its system rabbits. The settings on record: same experiment as in mice (percutaneous, 10% solution in squalene). How it is done:
as §1
(§2) 1-2. Acute dermal toxicity test in mice and rabbits: 0.2 ml/kg of the sample was administrated percutaneously once to a total of ten (10) mice (five male and five female).

For data set [8], the system named is mice. The note with it: percutaneous once, 0.2 ml/kg of 10% solution in squalene, two weeks of observation. How it is done: as §1, §2
For data set [9] the following is noted: 60° C., in cetylethyl-hexanoate, six months, unaided eye.
Data set [10] relates to rabbits. The settings on record: 0.1 ml of sample diluted with saline to 2%. The procedure:
as §1
1-4. Eye irritation test: The sample was diluted with saline to produce 2% of test sample, and 0.1 ml of the diluted solution was applied to the eye of each of nine (9) rabbits.

Experimental for phosphodiesterase: The phosphodiesterase was used as biological enzyme, and 1% aqueous solution of 1:9 mixture of preparation example 1 and Tween 20 was prepared to use as an assay sample. After the stirring mixture of the above enzyme, assay sample and medium solution at a temperature of 37° C. for 24 hours, analysis for the hydrolysis ratio of tocopherol derivatives was carried out by using HPLC(MeOH:THF=9:1, R.T.=13.695 min, tocopherol).

For `CC(=O)Oc1c(C)c(C)c2c(c1C)CCC(C)(CCC[C@H](C)CCC[C@H](C)CCCC(C)C)O2` (some centres unmarked) [tocopherol acetate], in data set [1], the “oxidation ratio of linoleic acid” value is “about 83%”. For the same compound, in data set [2], the “oxidation ratio of Lard oil” value was “about 90%”.

On to `Cc1c(C)c2c(c(C)c1OP(=O)(O)OCCCN)CCC(C)(CCCC(C)CCCC(C)CCCC(C)C)O2` (stereo not drawn) [Preparation Example 1, 3-aminopropyl-α-tocopherol phosphate], for which the “skin abnormality (sensitization)” value with Guinea pigs is “no skin abnormality such as erythema, edema or freckles was observed”. For the same compound, the “repeat irritation / sensitive irritation” value in the data set with subjects is “no repeat irritation or no sensitive irritation was observed”. In the data set on mice [3], the death of mice entry was “no death of mice was observed”. In the data set on mice [3], the “difference in the body weight after administration” value was “insignificant”. Further, in the data set with rabbits [4], the skin irritation result is recorded as “no skin irritation was observed”. Also, the “stability by quantitative analysis (NMR Spectroscopy), compared with tocopherol” value in data set [5] was “more stable”. In addition, the “Residual ration(%)” value in [5] (Month 1), in data set [5] (Month 2), in [5] (Month 3), in data set [5] (Month 4), in [5] (Month 5) and in data set [5] (Month 6) was 100% in each case. For the same compound, the “Residual ration(%)” value in [5] (Month head blank) was found to be 100%. Also, the primary irritation response result in the data set with healthy women is “primary irritation response was not observed”. Moreover, in data set [1], the “oxidation ratio of linoleic acid” value was “about 3%”. For the same compound, the “oxidation ratio of Lard oil” value in data set [2] is “about 5%”. For the same compound, the “Biosynthesis activity (%)” value in data set [6] (concentration 10^−6 %) is recorded as 141%. Further, the hydrolysis ratio in the data set on phosphodiesterase stood at 40%. Further, the “abnormal symptom and change of body weight” value in the data set with rabbits [7] is “No abnormal symptom and change of body weight were observed”. Further, the “abnormal symptoms or changes in body weight” value in the data set on mice [8] is listed as “no mice administered with the sample exhibited abnormal symptoms or changes in body weight”. Further, the coloration degree entry in data set [9] is reported as “did not change in color”. In addition, the eye irritation result in the data set on rabbits [10] is “no eye irritation on cornea, iris and conjunctiva was observed”.

In the case of `NCCCOP(=O)(O)O` [3-aminopropane phosphate, reference compound], the “Biosynthesis activity (%)” value in [6] (concentration 10^−4 %) is reported as 146%.

On to tocopherol [reference compound], for which the “Residual ration(%)” value in data set [5] (Month 1) is reported as 100%; in [5] (Month 2) it was 97%; in [5] (Month 3) it was 92%; in data set [5] (Month 4) it was 88%; in data set [5] (Month 5), 82%; in data set [5] (Month 6), 76%. Moreover, the “Residual ration(%)” value in [5] (Month head blank) came to 100%. In [1], the “oxidation ratio of linoleic acid” value is on record as “about 83%”. Besides, in data set [2], the “oxidation ratio of Lard oil” value is “about 90%”. The coloration degree result in data set [9] is “increase in coloration at four (4) months or more”.
